# Biological target: T1, androgen receptor (adenovirus AdEasy+rAR in L929 cells) (Rattus norvegicus, UniProt P15207)
# T1 construct: expressed in transfected cells
# T1 sequence (P15207 1-902): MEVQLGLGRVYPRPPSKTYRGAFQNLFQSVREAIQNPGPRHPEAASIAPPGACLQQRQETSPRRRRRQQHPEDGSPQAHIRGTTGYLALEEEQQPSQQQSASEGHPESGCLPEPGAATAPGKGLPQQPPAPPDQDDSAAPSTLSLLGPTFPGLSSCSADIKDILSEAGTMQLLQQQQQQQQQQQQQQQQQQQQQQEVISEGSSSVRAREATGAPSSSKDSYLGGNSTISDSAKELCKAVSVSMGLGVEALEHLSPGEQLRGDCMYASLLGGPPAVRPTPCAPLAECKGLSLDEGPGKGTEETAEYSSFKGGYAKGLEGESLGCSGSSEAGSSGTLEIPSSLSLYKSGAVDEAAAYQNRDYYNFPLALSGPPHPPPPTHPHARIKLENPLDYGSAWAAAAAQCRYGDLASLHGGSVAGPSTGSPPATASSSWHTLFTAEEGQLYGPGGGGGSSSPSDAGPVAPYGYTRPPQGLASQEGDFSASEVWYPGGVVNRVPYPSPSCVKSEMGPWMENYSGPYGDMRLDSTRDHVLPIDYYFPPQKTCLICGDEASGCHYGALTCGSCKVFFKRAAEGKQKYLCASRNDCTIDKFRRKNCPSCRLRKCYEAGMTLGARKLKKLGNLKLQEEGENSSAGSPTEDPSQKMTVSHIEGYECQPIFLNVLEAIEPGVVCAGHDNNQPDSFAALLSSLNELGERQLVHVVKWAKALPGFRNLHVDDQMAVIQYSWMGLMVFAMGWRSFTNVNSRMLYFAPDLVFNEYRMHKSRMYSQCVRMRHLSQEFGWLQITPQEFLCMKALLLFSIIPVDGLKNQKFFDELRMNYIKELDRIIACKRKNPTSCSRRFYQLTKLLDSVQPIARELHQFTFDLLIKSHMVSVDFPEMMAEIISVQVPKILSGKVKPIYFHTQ
# Experiment: L929 Androgen Receptor Functional Assay, Adenovirus Transduction
# Assay type: cell-based
# Conditions: 3000 nM; for % Activity: L929 agonist testing; for % Inhibition: L929 antagonist testing with R1881
# In short: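 Luminescent reporter readout after 48 h at 37 °C: rat AR delivered by adenovirus (AdEasy+rAR, moi 1:500) into L929 cells grown without phenol red in charcoal-treated serum. Antagonist wells also received R1881 (2.5× dilution at 2.5 nM).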
Structure (SMILES),% Activity [%],% Inhibition [%]
CC(O)(C[S+]([O-])Cc1ccccc1)c1cc2cc([N+](=O)[O-])c(C(F)(F)F)cc2[nH]1 (mixture of isomers) [compound 161],2,
CC(C)CSCC(C)(O)c1cc2cc([N+](=O)[O-])c(C(F)(F)F)cc2[nH]1 (racemic) [compound 170],2,67
COc1ccc(SCC(C)(O)c2cc3cc(Cl)c(C(F)(F)F)cc3n2S(C)(=O)=O)cc1 (racemic) [compound 130],−5,
CSCCC(C)(O)c1cc2cc([N+](=O)[O-])c(C(F)(F)F)cc2[nH]1 (racemic) [compound 47],2,75
COc1ccc(S(=O)(=O)CC(C)(O)c2cc3cc(Cl)c(C(F)(F)F)cc3[nH]2)cc1 (racemic) [compound 129],−5,−8

# — US8394971B2, “Indole derivatives as selective androgen receptor modulators (SARMS)” (Janssen Pharmaceutica N.V., priority 2004, dated 2013)
